Data set [1] can be described thus: Microsomal stability (intrinsic clearance), mouse liver microsomes. The class given is in vitro ADME. To be noted: for microsomal CLint: mouse, liver microsomes, pH 7.4, mouse liver microsomes. An excerpt:
(§1) A microsomal stability assay is used to measure in vitro clearance (Clint). The assay involves measuring the rate of disappearance of a compound due to its intrinsic attitude to be metabolized (“intrinsic” meaning that the disappearance is not affected by other properties like permeability, binding etc. that play a role when quantifying in vivo clearance). The microsomal stability (intrinsic clearance, Clint) and thus metabolic stability is generally given as μl/min/mg protein. It can be visualized as the volume of solution that 1 mg of microsomes is able to clear of the compound in one minute.
(§2) A Tecan Genesis workstation (RSP 150/8) was used for to perform the microsomal incubations. Analysis was carried out using a Waters ACQUITY UPLC system coupled to an ABSciex API3000 mass spectrometer. Data analysis was performed using Assay Explorer (Symyx).
(§3) Mobile phases: A=0.1% formic acid in water; B=acetonitrile
(§4) Flow rate: 0.750 mL/min; Detection: ESI, MRM; Injection: 10 μL; Column temperature: 50° C.
(§5) Potassium phosphate buffer: 0.05 M potassium phosphate buffer pH 7.4 containing 1 mM MgCl2 NADPH (nicotinamide adenine dinucleotide phosphate): 22.5 mg NADPH-Na4 in 1.8 ml potassium phosphate buffer Acetonitrile: 50 Vol % acetonitrile (1 volume acetonitrile, 1 volume water) DMSO: 20 Vol % DMSO in water Stock solution of 20 mg/ml human or mouse liver microsomes (protein)/ml in phosphate buffer Stock solution of 10 mM compound in 100% DMSO

Data set [2] in a line: Microsomal stability (intrinsic clearance), human liver microsomes. Conditions: for microsomal CLint: human, liver microsomes, pH 7.4, human liver microsomes. The data set is classed as in vitro ADME.
Description: as §1, §2, §3, §4, §5

The target of data set [3] is T1, Human recombinant His-tagged PFKFB3 (Homo sapiens, UniProt Q16875).
T1 construct: His; made in house
T1 sequence (Q16875 whole entry): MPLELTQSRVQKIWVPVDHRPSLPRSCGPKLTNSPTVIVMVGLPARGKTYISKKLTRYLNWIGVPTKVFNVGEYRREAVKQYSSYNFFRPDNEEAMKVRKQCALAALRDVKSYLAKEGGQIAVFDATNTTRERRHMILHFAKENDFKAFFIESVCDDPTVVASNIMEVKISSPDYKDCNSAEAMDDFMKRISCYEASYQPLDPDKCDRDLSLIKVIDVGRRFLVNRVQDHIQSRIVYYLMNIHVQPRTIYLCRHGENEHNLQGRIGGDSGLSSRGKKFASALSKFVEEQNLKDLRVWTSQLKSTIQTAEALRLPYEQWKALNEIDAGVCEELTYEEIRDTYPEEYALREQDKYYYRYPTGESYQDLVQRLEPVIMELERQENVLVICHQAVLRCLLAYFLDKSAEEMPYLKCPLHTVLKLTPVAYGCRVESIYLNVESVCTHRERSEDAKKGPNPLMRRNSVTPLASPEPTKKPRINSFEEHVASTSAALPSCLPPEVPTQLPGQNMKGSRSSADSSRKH
Description: PFKFB3 IC50 determination assay (modified ADP-Glo in vitro kinase assay). The class given is biochemical. Conditions: ATP 20 μM, fructose-6-phosphate 2 μM, 2 h, rt. The method, then: In vitro kinase assay used to determine IC50 values for tested inhibitors is based on a modified ADP-Glo™ system (Promega) and consists of two parts:
1. Kinase reaction—performed in optimized conditions. At this step PFKFB3 phosphorylates its substrate fructose-6-phosphate using ATP as a source of phosphate to produce fructose-2,6-bisphosphate and ADP. Reaction is performed at Km values for ATP and substrate using optimized buffer composition and time of the reaction. Human recombinant His-tagged PFKFB3 (PFKFB3 BATCH II SEC) with confirmed activity is produced and purified in-house. 2. Detection of ADP as a product of the reaction using ADP-Glo™ system. This part is conducted by using the commercially available kit ADP-Glo™ Kinase Assay (Promega, cat. No# V9103) according to manufacturer's instruction, modified by 5× dilutions of assay reagents (both ADP-Glo™ Reagent and Kinase Detection Solution). Reproducibility and reliability of this modification is confirmed in an optimization process.
Test compounds are dissolved in DMSO and then transferred to the V-bottom 96-well plate. For IC50 determination ten 10× serial dilutions starting from 100 μM are prepared.
Two mixes are prepared on ice: Mix 1—containing appropriate kinase amount in 2× reaction buffer (100 mM TRIS pH 8.0) and Mix 2—containing 2.31× concentrated substrate (Fructose-6-phosphate) and ATP in MilliQ water. 15 μL per well of Mix 1 is transferred to assay wells of 96-well white plate. Next, 2 μl of 15× concentrated test compound in DMSO is added to Mix 1 for 20 min pre-incubation, followed by addition of Mix 2 (13 μl/well). Total reaction volume is 30 μL per well. Samples are tested in duplicates. Final concentration of DMSO in the reaction is 6.7%. Conditions needed for performing PFKFB3 (PFKFB3 BATCH II SEC) in vitro kinase assay are given below:
This protocol is based on Technical Bulletin, ADP-Glo™ Kinase Assay (Promega) and is adapted to 96-well plate containing 30 μL reaction mixture:
30 μL of 5× diluted ADP-Glo™ Reagent is added to each well of 96-well plate containing 30 μL of reaction mixture. The plate is incubated for 90 minutes on a shaker at rt. 60 μL of 5× diluted Kinase Detection Solution is added to each well of 96-well plate containing 60 μL of the solution (ratio of kinase reaction volume to ADP-Glo™ Reagent volume to Kinase Detection Solution volume is maintained at 1:1:2). Plate is incubated for 40 minutes on a shaker at rt, protected from light. Luminescence is measured in the plate reader Synergy 2 (BioTek).
Luminescent readouts for compounds tested in 10 concentrations (routinely from 100 μM to […], […] serial dilutions) in duplicates, as well as for positive control, are first normalized to no-substrate negative control by its subtraction. In the next step, % of normalized positive control is calculated for each data point and plotted against test compound concentration:
% of control—percent of positive control normalized to no-substrate negative control Lumcpd—luminescence of test compound Lumneg—luminescence of no-substrate negative control Lumpos—luminescence of positive control
IC50 parameter is determined by the GraphPad Prism 5.0 software [log(inhibitor) vs. response—Variable slope (four parameters)].

The next data set is described as follows: Kinetic solubility. The data set is classed as physicochemical. To be noted: phosphate buffer 20 mM pH 7.4, 2% DMSO, room temperature; for solubility kinetic at 120 min: phosphate buffer, pH 7.4, aqueous buffer, kinetic from dmso stock. The method, then:
Kinetic solubility of compounds of the present invention were tested according the following procedure.
(a) Buffer Solution Phosphate Buffer 20 mM pH 7.4 is prepared using Sorensen Phosphate Buffer 0.2 M pH 7.4 (EMS) in a 1000 mL volumetric flask (b) 2% DMSO in Phosphate Buffer 20 mM pH 7.4 is prepared by using 1 mL Dimethylsulfoxide (Merck) and 49 ml Sorensen Phosphate Buffer 20 mM pH 7.4 (c) Acetonitrile/Methanole/Eluent A (1:1:2; v/v/v) is prepared by using 50 mL Acetonitrile (Merck), 50 mL Methanol (Merck) and 100 mL Eluent A (d) Eluent A is prepared by using 1 mL Formic Acid (Merck) and 999 mL Ultrapure water (e) Eluent B is prepared by using 1 mL Formic Acid (Merck) and 999 mL Acetonitrile (Merck) (f) Filtration plate: Millipore MultiScreen HTS HV (0.45 μm) 96 Well (Millipore)
98 μL buffer solution (a) is added into a well of a 96 well filtration plate (f). Then 2 μL of 10 mM test compound solution in DMSO (Remp tube) is added. The filtration plate is incubated at room temperature for 120 minutes while agitating at 250 rpm and centrifuged with the PP-Plate (g) as receiver plate below (2500 rpm, 3 min). The 50 μL of filtrate is taken from the receiver plate and mixed with 50 μL of 2% DMSO in buffer pH 7.4 solution (b) (dilution factor=2) in a HPLC Vial (i)+(j).
Standard is prepared by diluting 2 μL of the same 10 mM test compound solution (Remp tube) diluted with 198 μL Acetonitrile/Methanole/Eluent A (1:1:2; v/v/v) (c) to prepare a 100 μM standard solution in a HPLC Vial (i)+(j).
Column temperature: 37° C. Autosampler: room temperature (approx. 25° C.) Gradient programme: […]
Injection volume: 10 μL Wavelength: Suitable wavelength (maximum sensitivity) selected out of wavelength range of 190-400 nm using a DAD detector.
L [μg/mL]=(area sample*concentration standard*dilution factor sample)/(area standard*dilution factor standard)
S [mol/L]=[…] Calculation: […]

Where [4] appears, read: PFKFB IC50, human recombinant PFKFB3 25 nM.
The mark [5] stands for this setting: human recombinant PFKFB3 25 nM, read-out: PFKFB IC50.

≈ marks a conversion by molar mass, not a printed value. Where two headings read alike, the source gives them in different places.

`COc1ccc(C(Nc2cc(-c3ccc4ccn(C)c4c3)c3nccnc3c2)c2cnnn2C)cn1` (racemic) [Comparative Example 1, [(6-Methoxy-pyridin-3-yl)-(3-methyl-3H-[1,2,3]triazol-4-yl)-methyl]-[8-(1-methyl-1H-indol-6-yl)-quinoxalin-6-yl]-amine, reference compound]: the figures for the microsomal CLint in data set [1] and in data set [2] were 188 µL/min/mg and 163 µL/min/mg, respectively. Moreover, in data set [3] (setting [4]), the IC50 amounted to 25 nM.

Take `Cn1ccc2ccc(-c3cc(NC(c4cccnc4)c4ccc(=O)[nH]n4)cc4nccnc34)cc21` (single isomer, unassigned) [Example 3]: the “CLint Mouse” value in data set [1] (mouse liver microsomes) worked out at 92 μl/min/mg prot. Moreover, the “CLint Human” value in data set [2] (human liver microsomes) amounted to 61 μl/min/mg prot. In the data set “Kinetic solubility” (120 minutes), this compound yielded a Kinetic solubility of 64 µM. The IC50 in data set [3] (setting [5]) turned out to be 180 nM.

In the case of `COc1ccc([C@H](Nc2cc(-c3ccc4ccn(C)c4c3)c3nccnc3c2)c2cccnc2)nn1` (single isomer, unassigned) [Example 6], the microsomal CLint is 134 µL/min/mg in data set [1] and 174 µL/min/mg in data set [2]. In “Kinetic solubility”, this compound yielded a kinetic solubility at 120 min of 18 µM (≈ 8.52 µg/mL). Besides, the IC50 in data set [3] (setting [5]) was found to be 900 nM.

`Cn1cc([C@@H](Nc2cc(-c3ccc4ccn(C)c4c3)c3nccnc3c2)c2cnnn2C)cn1` (single isomer, unassigned) [Example 9]: the intrinsic metabolic clearance (microsomal CLint) was 146 µL/min/mg in data set [1] and 52 µL/min/mg in data set [2]. For the same compound, the solubility (kinetic) at 120 min in the data set “Kinetic solubility” stood at 110 µM (≈ 49.4 µg/mL). In data set [3] (setting [5]), the IC50 was 87 nM.

For `Cn1cc([C@@H](Nc2cc(-c3ccc4ccn(C)c4c3)c3nccnc3c2)c2cncn2C)cn1` (single isomer, unassigned) [Example 12], the IC50 in data set [3] (setting [5]) is 44 nM.

On to `Cn1cc([C@H](Nc2cc(-c3ccc4ccn(C)c4c3)c3nccnc3c2)c2nccn2C)cn1` (single isomer, unassigned) [Example 14], for which the microsomal CLint came out at 67 µL/min/mg in data set [1] and 57 µL/min/mg in data set [2]. In “Kinetic solubility”, the kinetic solubility at 120 min came to 36 µM (≈ 16.1 µg/mL). For the same compound, the half-maximal inhibitory concentration (IC50) in data set [3] (setting [5]) worked out at 640 nM.

With `Cn1cc([C@@H](Nc2cc(-c3ccc4ccn(C)c4c3)c3nccnc3c2)c2nccn2C)cn1` (single isomer, unassigned) [Example 15], the intrinsic metabolic clearance (microsomal CLint) in data set [1] came to 88 µL/min/mg; in data set [2] it was 76 µL/min/mg. In addition, the kinetic solubility at 120 min in the data set “Kinetic solubility” came to 48 µM (≈ 21.5 µg/mL). The concentration for half-maximal inhibition (IC50) in data set [3] (setting [5]) came to 560 nM.

Turning to `Cn1cc([C@@H](Nc2cc(-c3ccc4ccn(C)c4c3)c3nccnc3c2)c2cccnc2)cn1` (single isomer, unassigned) [Example 17], the microsomal CLint in data set [1] is 95 µL/min/mg; in data set [2], 172 µL/min/mg. In addition, in “Kinetic solubility”, the solubility (kinetic) at 120 min was determined as 42 µM (≈ 18.7 µg/mL). For the same compound, in data set [3] (setting [5]), the 50% inhibitory concentration (IC50) was 120 nM.

With `Cn1cc([C@H](Nc2cc(-c3ccc4ccn(C)c4c3)c3nccnc3c2)c2cccnc2)cn1` (single isomer, unassigned) [Example 18], the figures for the microsomal CLint in data set [1] and in data set [2] were 148 µL/min/mg and 142 µL/min/mg, respectively. The kinetic solubility at 120 min in the data set “Kinetic solubility” amounted to 39 µM (≈ 17.4 µg/mL). Moreover, in data set [3] (setting [5]), the IC50 is 6.5 nM.

In the case of `CC(C)[C@@H](Nc1cc(-c2ccc3ccn(C)c3c2)c2nccnc2c1)c1cccnc1` (single isomer, unassigned) [Example 20], the intrinsic clearance (microsomal CLint) in data set [1] and in data set [2] was greater than 500 µL/min/mg in each case. In “Kinetic solubility”, the kinetic solubility at 120 min was 6 µM (≈ 2.45 µg/mL). Besides, in data set [3] (setting [5]), the IC50 was found to be 33 nM.

Consider `CC(C)[C@H](Nc1cc(-c2ccc3ccn(C)c3c2)c2nccnc2c1)c1cccnc1` (single isomer, unassigned) [Example 21], for which the figures for the microsomal CLint in data set [1] and in data set [2] were 488 µL/min/mg and 366 µL/min/mg, respectively. This compound displayed a kinetic solubility at 120 min in “Kinetic solubility” of 7 µM (≈ 2.85 µg/mL). Further, in data set [3] (setting [4]), the half-maximal inhibitory concentration (IC50) is 23 nM.

On to `Cn1cc([C@@H](Nc2cc(-c3cnc4ccn(C)c4c3)c3nccnc3c2)c2cccnc2)cn1` (single isomer, unassigned) [Example 26], for which the microsomal CLint in data set [1] turned out to be 58 µL/min/mg; in data set [2] it was 67 µL/min/mg. The same compound registered a kinetic solubility at 120 min in “Kinetic solubility” of 192 µM (≈ 85.7 µg/mL). The IC50 in data set [3] (setting [5]) was found to be 1100 nM.

In the case of `Cn1cc([C@H](Nc2cc(-c3cnc4ccn(C)c4c3)c3nccnc3c2)c2cccnc2)cn1` (single isomer, unassigned) [Example 27], the results for the intrinsic clearance (microsomal CLint) in data set [1] and in data set [2] were 64 µL/min/mg and 404 µL/min/mg, respectively. The solubility (kinetic) at 120 min in the data set “Kinetic solubility” worked out at 161 µM (≈ 71.9 µg/mL). The IC50 in data set [3] (setting [5]) came out at 6300 nM.

`Cn1ccc([C@@H](Nc2cc(-c3ccc4ccn(C)c4c3)c3nccnc3c2)c2cnnn2C)n1` (single isomer, unassigned) [Example 29]: the intrinsic clearance (microsomal CLint) in data set [1] came to 69 µL/min/mg; in data set [2], 51 µL/min/mg. In “Kinetic solubility”, this compound came in with a kinetic solubility at 120 min of 108 µM (≈ 48.5 µg/mL). The IC50 in data set [3] (setting [5]) is 22 nM.

For the compound `Cn1ccc([C@H](Nc2cc(-c3ccc4ccn(C)c4c3)c3nccnc3c2)c2cnnn2C)n1` (single isomer, unassigned) [Example 30], the intrinsic clearance (microsomal CLint) in data set [1] turned out to be 216 µL/min/mg; in data set [2], 132 µL/min/mg. Further, in “Kinetic solubility”, the solubility (kinetic) at 120 min worked out at 96 µM (≈ 43.2 µg/mL). Further, the IC50 in data set [3] (setting [5]) came out at 190 nM.

These data come from patent publication US20190256499A1, “SUBSTITUTED QUINOXALINE DERIVATIVES AS INHIBITORS OF PFKFB” (priority 2016, published 2019).
